From patent publication US5786332A, “Cytokine restraining agents and methods of use in pathologies and conditions associated with altered cytokine levels” (Trega Biosciences, Inc., priority 1995, dated 1998)

Key:
Type in all cases: in vivo
TNF-α = test: Reduction of LPS-induced TNF levels in mice (IP dosing, ELISA); settings: 30 μg/mouse IP; LPS 5 mg/kg IP; vs untreated control mice
Protocol: Balb/c female mice weighing approximately 20 g were placed into two groups, a control group and a treated group. Five mg/kg of LPS in 0.9% saline was administered by intraperitoneal (IP) injection into the control mice. Mice in the treated group were first injected IP with 30 μg EX-2 or 150 μg EX-3 in saline, then, one mn after EX-2 or EX-3 was administered, the mice received LPS as described for the control group.
Blood samples were collected from the orbital sinus of treated and control mice at various times up to four hr after LPS was administered. The plasma was separated by centrifugation at 3000×g for 5 min, then diluted with four volumes of 1× phosphate buffer saline (pH 7.4) containing 1% bovine serum albumin. A 100 μl sample of serum was assayed by ELISA for TNF-α (Genzyme; Cambridge Mass.).
The mean (+/-SEM) TNF-α level in six mice from each group was determined and the percent reduction in TNF levels was calculated.

[1] = tested on: Harlan Sprague-Dawley rats; test: Adult respiratory distress syndrome: LPS-induced PMN count in broncho-alveolar lavage; settings: 100 μg/kg IP; LPS 5 mg/kg intratracheal; lavage at 6 hr
Protocol: These experiments were performed using a modification of the methods described by Ulich et al., Am. J. Pathol. 141:61-68 (1992) and by Wheelden et al., Lab. Animals 26:29-37 (1992), each of which is incorporated herein by reference. Male Harlan Sprague-Dawley rats were anesthetized using a mixture of 70 mg/kg ketamine and 6 mg/kg rompun injected IP. A 2-3 cm incision was made in the neck of each anesthetized rat and its trachea was exposed by blunt dissection of the surrounding soft tissue. The rats were suspended on a near vertical slab and intratracheal injections were performed by inserting into the exposed trachea, at a point 1 cm posterior to the larynx, a 25 G×1/2 inch needle attached to a 1 cc syringe.
Each rat received 0.5 ml/kg of saline or 0.5 ml/kg of 10 mg/ml (5 mg/kg) LPS endotoxin via slow intratracheal administration. Immediately following administration of the LPS endotoxin, rats were injected IP with 1 ml/kg of either saline (control) or saline containing various concentrations of EX-2 (treated). The rats were maintained in the elevated position for 1-2 min to facilitate distribution of the LPS and saline into the lung. The incisions were closed and the rats were allowed to recover. […]
neutrophils) in the broncho-alveolar lavage fluid were counted in the EX-2-treated rats and compared with the number in the control rats.

Sprague-Dawley rats [2] = test: Disuse deconditioning (tail suspension, 14 days); settings: 1 or 5 μg/kg IP twice daily
Protocol: Adult male Sprague-Dawley rats (355-365 g) were used in this study. Animals were housed individually in standard rat cages and were acclimated on a treadmill for 4 days. The next day, a baseline tail bleed was performed, followed by a maximal treadmill stress test the day after. The day following the stress test, the animals were divided into the appropriate treatment and control groups and the animals were suspended by their tails in suspension cages, which simulates weightlessness and, therefore, deconditions the animals. Another group of control animals was placed in standard rat cages with grated flooring similar to that utilized in the suspension cages. All animals were housed one per cage and supplied with food and water ad libitum. Body weights and food consumptions were measured daily. Animals received twice daily IP injections of 1 μg/kg or 5 μg/kg body weight of EX-2 (treated), or 1 ml/kg body weight of saline (control). On day 10, all animals were stress tested on the treadmill until they reached exhaustion. Data on maximum VO2 and running time were collected and compared to pre-suspension results. On day 14, all animals were sacrificed, and blood, tissues, and organs were collected for further analysis. All procedures and tests were performed blind to avoid researcher subjectivity. Statistical significance (p<0.05) between groups was evaluated by ANOVA with Student-Newman-Keuls test for multiple comparisons. All data are reported as the mean ± standard error (SE).
All of the animals were subjected to the stress tests, which measured exercise time and maximal VO2. As well, levels of the oxidative enzyme soleus citrate synthase and tibia bone density were measured.
Soleus citrate synthase was attenuated by 50%.

Sprague-Dawley rats [3] = test: Nephrotoxic serum glomerulonephritis, albuminuria; settings: EX-2 100 μg/kg per injection 3 times per day; 24 hr albumin excretion
Protocol: C. Glomerulonephritis: Male Sprague-Dawley rats (weight 194-248 g) were immunized by subcutaneous injection of 1 mg normal rabbit IgG (Sigma Chemical Co.) in Freund's complete adjuvant (Sigma Chemical Co.). EX-2 was administered 3 times per day (100 μg/kg per injection) throughout the duration of the experiment. Seven days later, the rats were injected with 1.5 ml of nephrotoxic serum iv via dorsal penile vein. Urine, plasma, and serum were collected before injection of nephrotoxic serum at 4, 6, 24, 48, and 96 hr thereafter. […] Albuminuria was quantified by immunoelectrophoresis.

In the case of “Ac-Nle-Gln-His-(D)Phe-Arg-(D)Trp-Gly-NH2 [EX-2]”, the “Reduction in TNF levels” value (TNF-α) is reported as 50%, the “Reduction in LPS-induced PMN Count” value [1] is reported as 58% and the “% Attenuation of suspension-induced decrease: Soleus Citrate Synthase” value (Sprague-Dawley rats [2]; day 14) is reported as 50%. For the same substance, the “% Attenuation of suspension-induced decrease: Tibia Bone Density” value (Sprague-Dawley rats [2]; day 14) was 50%, the “% Attenuation of suspension-induced decrease: Exercise Time” value (Sprague-Dawley rats [2]; treadmill day 10) was 44% and the “% Attenuation of suspension-induced decrease: Maximal VO2” value (Sprague-Dawley rats [2]; treadmill day 10) was 80%. The “% Reduction of induced increase in Albumin (mg/day), Glomerulonephritis” value (Sprague-Dawley rats [3]) was 62%.
